Measurements: patent US20080247991A1, “Solution Additives For the Attenuation of Protein Aggregation” (priority 2004, published 2008)
Marks after values point to notes of the source that are not given here.

Legend:
[1] = molecular target: T1, insulin binding to immobilized monoclonal anti-insulin (Homo sapiens, UniProt P01308); assay: Surface plasmon resonance (Biacore 3000): globular protein association/dissociation kinetics in buffer with additive; conditions: for effect on association rate of insulin and anti-insulin / effect on dissociation rate of insulin and anti-insulin: 0.5M, relative to 0.5M NaCl control
T1 construct: purchased Sigma-Aldrich (insulin); Fitzgerald Industries (antibody) I8530; 10-130 clone M322214
Method: Surface plasmon resonance experiments were conducted to measure the effect of added ArgHCl and GuHCl on the kinetics of globular protein association and dissociation versus an equimolar salt control (NaCl). The data set shown in the figure is a composition of 8 different concentration runs plus replicates, for a total of 16 runs. At t=140 sec, the flow cell with immobilized anti-insulin was exposed to a constant concentration of insulin in the range of 2 to 188 nM for 3 minutes. During this 3 minutes, the antibody and antigen were free to associate and dissociate. The net reaction is the binding of free antigen in solution, resulting in an increase in detector response proportional to the mass of antigen bound. At t=320 sec, the insulin concentration in the flow cell inlet is returned to zero, and the bound antigen then dissociates from the surface. All 16 runs were simultaneously fit to a binding model by minimizing the squared residuals to yield the association and dissociation rate constants, ka and kd. This process was repeated to yield association, dissociation, and equilibrium constant data for the model systems in various buffers as shown in Table 4.
Globular Protein Association Kinetics—Protein association and dissociation rate constants, ka and kd, were measured for globular proteins via surface plasmon resonance on a Biacore 3000 instrument. Monoclonal anti-insulin was immobilized on a Biacore CM5 sensor chip via amine coupling. The amount of immobilized antibody was selected to give a detector response in the range of 50-100 RU when antigen was present. A reference surface was created by activating and deactivating the surface without coupling an antibody to it.
Different concentrations of insulin in the nanomolar range ([…]) were prepared by dilution and injected serially into the antibody-containing and reference flow cells. […] Pocker, Y. & Biswas, Subhasis, B. (1981) Biochemistry 20, 4354-4361. The dissociation rate was sufficiently fast in buffer that a regeneration buffer was not required. Kinetic constants were extracted by simultaneous fitting of ka and kd to each set of sensorgrams using a 1:1 kinetic model in the BIAevaluation 3.0 software package.

carbonic anhydrase II [2] = molecular target: T2, carbonic anhydrase II (Bos taurus, UniProt P00921); assay: Size exclusion HPLC of multimers formed during refolding of carbonic anhydrase; parameters: purchased Sigma-Aldrich C2522; species or system bovine; conditions: for A2, percentage of total carbonic anhydrase / A3-5, percentage of total carbonic anhydrase / A6-15, percentage of total carbonic anhydrase / M (monomer), percentage of total carbonic anhydrase / Large multimers, percentage of total carbonic anhydrase: [U]0 = 20 μM, 0.5 M additive; for Large multimers, percentage of total carbonic anhydrase: inferred by difference
Method: Size exclusion HPLC experiments were performed to analyze the distribution of multimers formed during refolding. CA was refolded with three different additives, 0.5M NaCl, 0.5M GuHCl, and 0.5M ArgHCl, relative to a base refolding buffers of 0.5M GuHCl, as done in the esterase activity assays above. […] Other than this protein concentration difference, these experiments allow direct comparison of how an additional 0.5M of the three different cations affect refolding.
The samples were not filtered prior to introduction into the HPLC column.
Size Exclusion HPLC—Size exclusion HPLC (SE-HPLC) experiments were performed on a Beckman System Gold HPLC instrument equipped with a Tosohaas G3000SWXL size exclusion column and a UV detector. 30 μl samples were introduced to the column by a constant flow of 1 ml/min mobile phase. Each sample ran for 15 minutes, with carbonic anhydrase eluting between 6 and 10 minutes, depending on its molecular weight and buffer. […] A mixture of lysozyme, carbonic anhydrase, and bovine serum albumin (monomer and dimer) was used as a standard to calibrate molecular weight to retention time. Using this calibration curve and the breakthrough time of the column, the largest multimer that could pass through the column was a 15-mer. When significant mass was missing from a chromatogram, large multimers were quantitated by difference. The presence of large multimers was confirmed via turbidity or dynamic light scattering for each buffer. The instrument was cleaned with 30 μl injections of 4M GuHCl, a denaturing concentration found to dissociate and elute precipitates and large soluble carbonic anhydrase multimers.

carbonic anhydrase II [3] = molecular target: T2, carbonic anhydrase II; parameters: purchased Sigma-Aldrich C2522; conditions: 1.0M GuHCl, carbonic anhydrase less than 30 μM; previous studies; cited from earlier work
carbonic anhydrase II [4] = molecular target: T2, carbonic anhydrase II; assay: Carbonic anhydrase refolding yield by esterase activity (pNPA)
Method: Esterase activity assays were performed as a function of initial unfolded protein concentration and buffer composition to determine how equimolar concentrations of NaCl, ArgHCl, and GuHCl each affected refolding yield (FIG. 16).
High concentrations of carbonic anhydrase (>300 μM) were denatured in 6M GuHCl and equilibrated overnight. Refolding was initiated by dilution to 0.5M GuHCl with 50 mM Tris-HCl buffer, pH 7.5. This final GuHCl concentration was selected because it yields a mixture of active, refolded protein and aggregates. The distribution of this mixture was analyzed via esterase activity, size exclusion HPLC, and dynamic light scattering as described above.
Carbonic Anhydrase Esterase Activity—Esterase activity of carbonic anhydrase was assessed using para-nitrophenylacetate (pNPA) as the substrate as described previously. […] Briefly, 10 μl samples of carbonic anhydrase solution were added to 500 μl of Tris-HCl, pH 7.5 and 50 μl of 50 mM pNPA in acetonitrile. Kinetics of hydrolysis of pNPA was observed by the increase in absorbance at 400 nm due to the appearance of the paranitrophenolate ion (pNP^−). In all cases, the observed hydrolysis rate in absorbance units per second (AU/s) under these conditions was constant (pseudo-zero order). Hydrolysis rates were corrected for the hydrolysis of pNPA by the buffer for each type of buffer used. […] The active protein concentration data was reproducible to within 5-8% in replicated experiments.

RNase A = molecular target: T3, RNase A (Bos taurus, UniProt P61823); conditions: interpolated to mbulk 0.91 m; cited from earlier work
T3 sequence (P61823 27-150): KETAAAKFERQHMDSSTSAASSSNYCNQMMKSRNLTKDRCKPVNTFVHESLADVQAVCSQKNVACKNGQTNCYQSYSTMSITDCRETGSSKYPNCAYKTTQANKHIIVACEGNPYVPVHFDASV

RNase T1 = molecular target: T4, RNase T1 (Aspergillus oryzae, UniProt P00651); conditions: interpolated to mbulk 1.10 m; cited from earlier work
T4 sequence (P00651 27-130): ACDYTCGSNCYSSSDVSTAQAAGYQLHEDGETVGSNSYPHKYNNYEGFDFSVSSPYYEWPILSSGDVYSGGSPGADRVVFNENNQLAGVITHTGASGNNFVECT

[5] = 0.5 M additive in HBS-EP, pH 7.4, estimated error 15%
[6] = 0.5 M additive, relative to HBS-EP + 0.5 M NaCl

T1 sequence (P01308 25-54 limits assumed): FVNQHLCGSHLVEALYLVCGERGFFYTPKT
T1 sequence (P01308 90-110 limits assumed): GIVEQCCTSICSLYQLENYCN
T2 sequence (P00921 whole entry): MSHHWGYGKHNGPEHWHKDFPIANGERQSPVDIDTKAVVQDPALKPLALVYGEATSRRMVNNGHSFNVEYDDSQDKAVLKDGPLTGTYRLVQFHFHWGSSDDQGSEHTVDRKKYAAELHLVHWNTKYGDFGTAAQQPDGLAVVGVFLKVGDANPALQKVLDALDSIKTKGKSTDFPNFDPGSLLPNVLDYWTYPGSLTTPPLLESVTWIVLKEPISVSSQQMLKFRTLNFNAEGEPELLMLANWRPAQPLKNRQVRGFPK

## Cl.N=C(N)N [GuHCl, Guanidinium chloride]
[1]; [5]
  ka: 40000 M⁻¹ s⁻¹
  kd: 0.094 s⁻¹
[1]; [6]
  ka/ka0: 0.91
  kd/kd0: 6.7
[1]
  effect on association rate of insulin and anti-insulin: insignificant effect
  effect on dissociation rate of insulin and anti-insulin: significantly increases
[1]; listed as guanidinium
  effect on association rate of insulin and anti-insulin: little effect
  effect on dissociation rate of insulin and anti-insulin: accelerated
Carbonic anhydrase II [2]; 0.5M added, versus 0.5M NaCl
  yield of monomeric protein: significantly increased
Carbonic anhydrase II [2]; time 2 min
  A2, percentage of total carbonic anhydrase: 39%
  A3-5, percentage of total carbonic anhydrase: 8%
  A6-15, percentage of total carbonic anhydrase: 0%
  M (monomer), percentage of total carbonic anhydrase: 42%
  Large multimers, percentage of total carbonic anhydrase: 11%
Carbonic anhydrase II [2]; time 20 min
  A2, percentage of total carbonic anhydrase: 3%
  A3-5, percentage of total carbonic anhydrase: 6%
  A6-15, percentage of total carbonic anhydrase: 0%
  M (monomer), percentage of total carbonic anhydrase: 82%
  Large multimers, percentage of total carbonic anhydrase: 9%
Carbonic anhydrase II [2]; time 38 min
  A2, percentage of total carbonic anhydrase: 1%
  A3-5, percentage of total carbonic anhydrase: 5%
  A6-15, percentage of total carbonic anhydrase: 0%
  M (monomer), percentage of total carbonic anhydrase: 85%
  Large multimers, percentage of total carbonic anhydrase: 9%
Carbonic anhydrase II [2]; time 1500 min
  A2, percentage of total carbonic anhydrase: 0%
  A3-5, percentage of total carbonic anhydrase: 2%
  A6-15, percentage of total carbonic anhydrase: 0%
  M (monomer), percentage of total carbonic anhydrase: 89%
  Large multimers, percentage of total carbonic anhydrase: 9%
Carbonic anhydrase II [3]
  yield of native protein: ~100%
Carbonic anhydrase II [4]; 0.5 M additive, relative to 0.5M NaCl, base buffer 0.5 M GuHCl
  α/α0: 8.2
Carbonic anhydrase II [4]; 0.5 M additive, base buffer 0.5 M GuHCl, fit to second-order aggregation model
  α (refolding selectivity parameter, kr/kagg): 77 µM
Carbonic anhydrase II [4]; equimolar (0.5M) additives
  order of yield of active protein as a function of buffer additive: NaCl<<ArgHCl<GuHCl

## OCC(O)CO [Glycerol]
RNase A
  Experimental ΓXP: −1.7 ± 0.8^b

## NC(N)=O [Urea]
RNase T1
  Experimental ΓXP: 6.4^a
